From patent US20110224226A1, “COMPOSITIONS AND METHODS FOR INCREASING BLOOD PLATELET LEVELS IN HUMANS” (AKARX, Inc., priority 2006, published 2011)

Key:
[1] = QT interval in cynomolgus monkeys; format: in vivo; details: 100 and 1000 mg/kg, appears related to decreased heart rate from acclimation, not drug related
liver microsomal enzymes [2] = assay: metabolism by human liver microsomal enzymes; format: in vitro ADME
[3] = 4-week repeat dose toxicity in cynomolgus monkey; format: in vivo
[4] = test system: human cord blood (CB) CD34^+ cells; assay: differentiation of human cord blood CD34+ cells to megakaryocytes; format: cell-based; details: concentration-dependent; maximum effect similar to that of rhTPO
[5] = in-vitro plasma protein binding, mice; format: in vitro ADME; details: mouse, 0.05 to 50 μg/mL
Method: The in-vitro plasma protein binding of the drug of Formula I was independent of concentration over the concentration range of 0.05 to 50 μg/mL and was 87.2-89.1% in mice; 87.6-89.2% in rats; 88.3-92.0% in rabbits; […] in dogs; 97.0-97.6% in monkeys; and 96.3-96.6% in humans.

human c-Mpl = biological target: T1, human c-Mpl (Homo sapiens, UniProt P40238); assay: interference with rhTPO binding to human platelets; details: concentrations up to 100 μM
T1 construct: endogenous in cells; host or cells: human platelets
T1 sequence (P40238 26-635): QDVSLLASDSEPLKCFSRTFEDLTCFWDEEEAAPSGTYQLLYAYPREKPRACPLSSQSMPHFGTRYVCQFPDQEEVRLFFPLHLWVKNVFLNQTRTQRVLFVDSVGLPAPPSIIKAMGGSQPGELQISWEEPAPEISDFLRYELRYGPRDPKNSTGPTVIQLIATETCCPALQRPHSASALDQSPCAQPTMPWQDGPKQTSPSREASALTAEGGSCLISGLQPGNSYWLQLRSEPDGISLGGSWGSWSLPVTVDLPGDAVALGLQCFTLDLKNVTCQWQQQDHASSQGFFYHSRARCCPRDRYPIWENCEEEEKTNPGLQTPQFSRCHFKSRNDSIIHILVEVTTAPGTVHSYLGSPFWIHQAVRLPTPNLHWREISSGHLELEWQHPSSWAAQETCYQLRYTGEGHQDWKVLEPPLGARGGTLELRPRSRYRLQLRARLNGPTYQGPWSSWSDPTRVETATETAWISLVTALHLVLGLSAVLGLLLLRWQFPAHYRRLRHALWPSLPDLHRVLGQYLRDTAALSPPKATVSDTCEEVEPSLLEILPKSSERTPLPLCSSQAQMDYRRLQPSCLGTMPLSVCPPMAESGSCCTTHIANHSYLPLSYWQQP

liver microsomal enzymes [6] = assay: metabolism by mouse liver microsomal enzymes; format: in vitro ADME
[7] = pharmacokinetics after intravenous and oral administration in mice; format: in vivo; details: mouse, plasma
Description: After a single intravenous administration of the drug of Formula I as the monomaleate salt to mice and dogs, plasma concentrations of Formula I decreased in a biphasic manner.

platelet count = assay: Example 1 single dose study: pharmacodynamics (platelet count); format: in vivo, human
Method: A single-center, randomized, double-blind, dose-rising study to determine the safety, pharmacokinetics, and pharmacodynamics of single doses of 1-(3-chloro-5-{[4-(4-chlorothiophen-2-yl)-5-(4-cyclohexylpiperazin-1-yl)thiazol-2-yl]carbamoyl} pyridin-2-yl)piperadine-4-carboxylic acid (Formula I) in normal healthy volunteers was performed. The starting dose of the drug of Formula I was 1 mg (expressed as free base). Successive dose cohorts received 3, 10, 20, 50, 75 and 100 mg. The drug substance in the form of the monomaleate salt was suspended in Ora-Plus® (purified water, microcrystalline cellulose, sodium carboxymethylcellulose, xanthan gum, citric acid, sodium phosphate, simethicone, potassium sorbate and methylparaben), a commercially available oral suspending vehicle manufactured by Paddock Laboratories, Inc. Minneapolis, Minn. The Ora-Plus® was diluted with purified water, USP in a 1:1 suspension before being used to suspend the drug substance powder in preparation for oral administration. Prior to administration, 30 mL of the Ora-Plus®/water vehicle was added to each bottle, shaken and then consumed by the subject for each of the 3, 10, 50 and 75 mg dose cohorts. This was followed by an additional 30 mL of vehicle that was added to the bottle as a wash solution, shaken and then consumed by the subject. For the 20 mg and 100 mg dose cohorts, 60 mL of the Ora-Plus®/water vehicle was added to two (2) separate bottles containing the appropriate dose of drug (30 mL each bottle), shaken then consumed by the subjects. This was followed by an additional 60 mL of vehicle that was added as 30 ml to each bottle as a wash solution, shaken and then consumed by the subject.
A minimum of 9 subjects (male and female healthy volunteers) were enrolled in each cohort. The active group within each cohort included male and female volunteers. Three subjects per cohort received placebo. Each successive dose cohort was treated no sooner than 10 days after the previous group had received the study drug. […]

human c-Mpl-Ba/F3 cells = assay: proliferation of cultured human c-Mpl-Ba/F3 cells; format: cell-based; details: concentration-dependent; maximum effect similar to that of rhTPO
platelet function = platelet function (platelet aggregation and activation); format: cell-based, human
2D6 = 2D6 (Homo sapiens, UniProt P10635); assay: inhibition of human liver cytochrome P450 2D6; format: in vitro ADME; details: human liver cytochrome P450 isoenzyme
2D6, sequence (P10635 whole entry): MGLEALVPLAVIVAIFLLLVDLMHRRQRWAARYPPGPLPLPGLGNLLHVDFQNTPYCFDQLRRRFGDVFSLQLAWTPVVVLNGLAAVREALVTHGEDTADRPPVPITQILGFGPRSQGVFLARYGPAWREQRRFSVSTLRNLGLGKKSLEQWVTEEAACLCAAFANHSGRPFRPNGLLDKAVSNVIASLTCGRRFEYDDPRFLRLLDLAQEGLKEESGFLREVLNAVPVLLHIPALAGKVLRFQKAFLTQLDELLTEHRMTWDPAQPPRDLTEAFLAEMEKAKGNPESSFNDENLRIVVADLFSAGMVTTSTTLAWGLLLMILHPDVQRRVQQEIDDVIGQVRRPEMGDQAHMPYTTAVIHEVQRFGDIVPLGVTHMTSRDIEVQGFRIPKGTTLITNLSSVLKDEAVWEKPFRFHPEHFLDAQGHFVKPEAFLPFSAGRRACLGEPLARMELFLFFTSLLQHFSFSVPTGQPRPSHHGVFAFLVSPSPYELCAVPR

In the case of `O=C(Nc1nc(-c2cc(Cl)cs2)c(N2CCN(C3CCCCC3)CC2)s1)c1cnc(N2CCC(C(=O)O)CC2)c(Cl)c1` [Formula I, 1-(3-chloro-5-{[4-(4-chlorothiophen-2-yl)-5-(4-cyclohexylpiperazin-1-yl)thiazol-2-yl]carbamoyl}pyridin-2-yl)piperadine-4-carboxylic acid], the QT interval [1] is reported as “prolongation of QT interval was reported”, the “metabolism by liver microsomal enzymes” value (liver microsomal enzymes [2]) is reported as “does not appear to be metabolized” and the “changes in the gastric mucosa” value ([3]; cynomolgus monkey, repeat dosing 4 weeks, 3, 10, 100, 1000 mg/kg/day) is reported as “necrosis of the surface epithelium and atrophy of the fundic glands and edema and inflammatory infiltrates in the lamia propria of the fundus”. The “muscle degeneration/necrosis in femoral, lower thigh or multifides muscles” value ([3]; cynomolgus monkey, repeat dosing 4 weeks, lesions partly present before dosing and in a control) was “one or more monkeys in all dose groups”, the “CK and aldolase levels” value ([3]; cynomolgus monkey, elevated levels also present prior to the first dose) was “Elevated levels of CK and aldolase” and the “reversibility of gastric mucosa changes” value ([3]; high dose monkeys, on drug withdrawal) was “not entirely”. The “differentiation of human cord blood CD34+ cells to human megakaryocytes” value [4] was “promotes the differentiation”, the fraction unbound [5] was 0.109 to 0.128 and the “interference with rhTPO binding to human platelets” value (human c-Mpl) was “does not interfere”. For the same molecule, the “metabolism by liver microsomal enzymes” value (liver microsomal enzymes [6]) was “does not appear to be metabolized”, the half-life ([7]; mice, single intravenous administration as the monomaleate salt, read-out: terminal elimination half-life (t1/2) (converted)) was 2.7 h and the bioavailability ([7]; oral administration, read-out: absolute bioavailability) was 91%. The “dose at which the PD limit (5 subjects with >50% increase in platelet count) was reached” value (platelet count; single dose) was 100 mg, the “dose-concentration-response relationship for changes in platelet count” value (platelet count; single dose, increasing drug concentrations and exposure) was “linear increases in platelet counts over baseline” and the “single dose after which statistically significant increases in platelet counts were evident” value (platelet count; single oral dose, healthy volunteers) was at least 10 mg. For the same molecule, the “proliferation of cultured human c-Mpl-Ba/F3 cells” value (human c-Mpl-Ba/F3 cells) was “stimulates the proliferation”, the “platelet function as measured by platelet aggregation and activation” value (platelet function) was “does not appear to effect platelet function” and the “inhibition of CYP2D6” value (2D6) was “did not inhibit”.
